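48-hour exposure; five concentrations; linearly interpolated endpoints. The concentration for 50% growth inhibition is given as GI50.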 The source made the active and inactive calls. No stated cut-off is given here; in the data, active = GI50 up to about 1.1 µM and inactive = higher.
Tests used:
Assay in all cases: inhibition of tumour cell growth, NCI panel, 48 h
[1] = test system: CCRF-CEM
[2] = test system: SNB-19
[3] = test system: RPMI-8226
[4] = test system: SK-MEL-2
[5] = test system: OVCAR-5
[6] = test system: UO-31
[7] = test system: HCC 2998
[8] = test system: NCI-H460
[9] = test system: SF-539
[10] = test system: U-251
[11] = test system: LOX IMVI
[12] = test system: T47D
[13] = test system: HOP-62
[14] = test system: A498
[15] = test system: Hs-578T
[16] = test system: 786-0
[17] = test system: MCF7
[18] = test system: SN12C
[19] = test system: MDA-MB-231
[20] = test system: EKVX

Row | Compound | GI50 [1] | GI50 [2] | GI50 [3] | GI50 [4] | GI50 [5] | GI50 [6] | GI50 [7] | GI50 [8] | GI50 [9] | GI50 [10] | GI50 [11] | GI50 [12] | GI50 [13] | GI50 [14] | GI50 [15] | GI50 [16] | GI50 [17] | GI50 [18] | GI50 [19] | GI50 [20]
1 | CCOc1cc2c(cc1O)C(=O)C[C@@H]1[C@@H]2CC[C@]2(C)[C@@H](O)CC[C@@H]12 | 0.162 µM (active) | 0.189 µM (active) | 0.154 µM (active) | 4.85 µM (inactive) | 20.6 µM (inactive) | 0.482 µM (active) | 1.36 µM (inactive) | 0.0982 µM (active) | 0.155 µM (active) | 0.173 µM (active) | 0.189 µM (active) | 0.13 µM (active) | 0.213 µM (active) | 0.269 µM (active) | 0.163 µM (active) | 0.177 µM (active) | 0.132 µM (active) | 0.353 µM (active) | 0.525 µM (active) | 10.1 µM (inactive)
2 | O/N=C\c1c2c(cc3c1CCC3)CCC2 | > 100 µM (inactive) | > 100 µM (inactive) | > 100 µM (inactive) | > 100 µM (inactive) | > 100 µM (inactive) | > 100 µM (inactive) | > 100 µM (inactive) | > 100 µM (inactive) | > 100 µM (inactive) | > 100 µM (inactive) | > 100 µM (inactive) | 49.5 µM (inactive) | > 100 µM (inactive) | 34.1 µM (inactive) | > 100 µM (inactive) | > 100 µM (inactive) | > 100 µM (inactive) | > 100 µM (inactive) | > 100 µM (inactive) | > 100 µM (inactive)

From ChEMBL document CHEMBL1201862, “PubChem BioAssay data set” (2004)
